The target in the assay is HPPK (Escherichia coli, UniProt P26281). Briefly: HPPK binding study by fluorometric titration (Kd). Particulars: for affinity compared with previously known HPPK inhibitors: comparison in words. How it is done:
Binding studies were carried out at room temperature. Protein (HPPK) and ligand stock solutions were made in 100 mM Tris-HCl, pH 8.3, and their concentrations were determined spectrophotometrically using the following extinction coefficients: 21600 M^−1 cm^−1 at 280 nm for HPPK and 7124 M^−1 cm^−1 at 380 nm for the tetrahydropteridine bisubstrate inhibitors of Formula I. A 3-mL dilute inhibitor solution in a fluorometric cuvette was titrated with the protein stock solution. Fluorescence was measured on a Horiba Jobin Yvon FluoroMax-4 fluorometer. The excitation wavelength and slit were 364-380 and 2-3 nm, respectively, and the emission wavelength and slit were 450-482 and 2-5 nm, respectively. […] For these HPPK preparations, a control experiment, in which a 3-mL buffer solution was titrated with the protein solution, was performed. The control data was subtracted from the titration data. The corrected titration data was then analyzed by nonlinear least-squares regression using the software Origin and the equation: […]
where Fobs is the observed fluorescence, εf and εb are the fluorescence coefficients of the ligand in the free and protein-bound states, respectively, Lt is the total concentration of the ligand, and Et is the total concentration of HPPK. Lt and Et were varied during the titration process according to the following expressions:
where E0 is the concentration of the HPPK stock solution, L0 is the initial concentration of the ligand, V0 is the initial volume of the titration, and ΔV is the total volume of the added HPPK solution.

Where [1] appears, read: room temperature, 100 mM Tris-HCl pH 8.3, inhibitor titrated with HPPK, fluorescence, nonlinear least-squares analysis, read-out: Kd.

As usually defined, the Kd is the constant that tells how readily two partners part at equilibrium.

The structures appear in SMILES notation. Where two headings read alike, the source gives them in different places.

Sequence of HPPK (P26281 whole entry): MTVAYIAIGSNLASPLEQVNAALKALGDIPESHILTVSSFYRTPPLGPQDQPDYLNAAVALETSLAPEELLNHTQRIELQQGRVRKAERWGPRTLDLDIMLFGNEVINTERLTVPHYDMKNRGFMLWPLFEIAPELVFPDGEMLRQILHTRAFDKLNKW

Take `CC1(C)Nc2nc(N)[nH]c(=O)c2N=C1C(=O)NC1CCN(CCSC[C@H]2O[C@@H](n3cnc4c(N)ncnc43)[C@H](O)[C@@H]2O)CC1` [Compound 101, 2-amino-N-(1-(2-((((2S,3S,4R,5R)-5-(6-amino-9H-purin-9-yl)-3,4-dihydroxytetrahydrofuran-2-yl)methyl)thio)ethyl)piperidin-4-yl)-7,7-dimethyl-4-oxo-3,4,7,8-tetrahydropteridine-6-carboxamide]: the Kd under setting [1] was 11500 nM.
Take `CC1(C)Nc2nc(N)[nH]c(=O)c2N=C1C(=O)NCC(=O)N(CC(=O)NC[C@H]1O[C@@H](n2cnc3c(N)ncnc32)C(O)C1O)CP(=O)(O)O` (stereo partly shown) [Compound 114]: the Kd was 1800 nM and the “affinity compared with previously known HPPK inhibitors” value is “significantly higher”.
As to `CC1(C)Nc2nc(N)[nH]c(=O)c2N=C1C(=O)NCCN(CC(=O)NC[C@H]1O[C@@H](n2cnc3c(N)ncnc32)C(O)C1O)CP(=O)(O)O` (stereo partly shown) [Compound 115], the Kd stood at 2900 nM.
For the compound `CC1(C)Nc2nc(N)[nH]c(=O)c2N=C1C(=O)NCCN(CCSC[C@H]1O[C@@H](n2cnc3c(N)ncnc32)[C@H](O)[C@@H]1O)CP(=O)(O)O` [Compound 118, (((2-(2-amino-7,7-dimethyl-4-oxo-3,4,7,8-tetrahydropteridine-6-carboxamido)ethyl)(2-((((2S,3S,4R,5R)-5-(6-amino-9H-purin-9-yl)-3,4-dihydroxytetrahydrofuran-2-yl)methyl)thio)ethyl)amino)methyl)phosphonic acid], the dissociation constant (Kd) was 400 nM and the “affinity compared with previously known HPPK inhibitors” value was “significantly higher”.
Turning to `CC1(C)Nc2nc(N)[nH]c(=O)c2N=C1C(=O)NCCN1CC[C@@H](SC[C@H]2O[C@@H](n3cnc4c(N)ncnc43)[C@H](O)[C@@H]2O)C[C@@H]1C(=O)O` [Compound 120, (2R,4R)-1-(2-(2-amino-7,7-dimethyl-4-oxo-3,4,7,8-tetrahydropteridine-6-carboxamido)ethyl)-4-((((2S,3S,4R,5R)-5-(6-amino-9H-purin-9-yl)-3,4-dihydroxytetrahydrofuran-2-yl)methyl)thio)piperidine-2-carboxylic acid], the Kd under setting [1] was 300 nM.

Source of the values: patent US11091509B2, “HPPK inhibitors useful as antibacterial agents” (priority 2016, dated 2021).
